# From patent publication US10092575B2, “Substituted thiophene- and furan-fused azolopyrimidine-5-(6H)-one compounds” (DART NEUROSCIENCE (CAYMAN) LTD., priority 2012, dated 2018)
# Molecular target: human PDE1b enzyme (Homo sapiens (Human), UniProt Q01064)
# Assay: PDE1b inhibitory assay (IMAP TR-FRET)
# Conditions: not given
row,Structure (SMILES),EC50 [nM]
1,"COc1ccc(Cn2c(=O)n3ncnc3c3c4c(sc32)CN(C2CS(=O)(=O)C2)CC4)cc1 [Example 124, 9-(1,1-Dioxidothietan-3-yl)-6-(4-methoxybenzyl)-8,9,10,11-tetrahydropyrido[4′,3′:4,5]thieno[3,2-e][1,2,4]triazolo[1,5-c]pyrimidin-5 (6H)-one]",100 to 1000
2,"COc1ccc(Cn2c(=O)n3ncnc3c3cc(CN4C[C@@H](C)O[C@@H](C)C4)sc32)c(F)c1F [Example 200, 6-(2,3-Difluoro-4-methoxybenzyl)-8-(((2R,6S)-2,6-dimethylmorpholino)methyl)thieno[3,2-e][1,2,4]triazolo[1,5-c]pyrimidin-5(6H)-one]",1000 to 10000
3,"Cc1csc2c1c1ncnn1c(=O)n2Cc1ccccc1Cl [Example 10, 6-(2-Chlorobenzyl)-9-methylthieno[3,2-e][1,2,4]triazolo[1,5-c]pyrimidin-5(6H)-one]",1000 to 10000
4,"O=c1n(Cc2ccccc2)c2sc3c(c2c2ncnn12)CCCC3 [Example 84, 6-Benzyl-8,9,10,11-tetrahydrobenzo[4,5]thieno[3,2-e][1,2,4]triazolo[1,5-c]pyrimidin-5(6H)-one]",100 to 1000
5,"COc1ccc(Cn2c(=O)n3ncnc3c3c4c(sc32)NCCC4)cc1 [Example 221, 6-(4-Methoxybenzyl)-8,9,10,11-tetrahydropyrido[3′,2′:4,5]thieno[3,2-e][1,2,4]triazolo[1,5-c]pyrimidin-5(6H)-one]",100 to 1000
6,"O=c1n(Cc2ccc(C(F)(F)F)cc2)c2sc3c(c2c2ncnn12)CCOC3 [Example 89, 6-(4-(Trifluoromethyl)benzyl)-6,8,10,11-tetrahydro-5H-pyrano[4′,3′:4,5]thieno[3,2-e][1,2,4]triazolo[1,5-c]pyrimidin-5-one]",1000 to 10000
7,"COc1ccc(Cn2c(=O)n3ncnc3c3c4c(sc32)CNCC4)cc1 [Example 183, 6-(4-Methoxybenzyl)-8,9,10,11-tetrahydropyrido[4′,3′:4,5]thieno[3,2-e][1,2,4]triazolo[1,5-c]pyrimidin-5(6H)-one]",100 to 1000
8,"COc1ccc(Cn2c(=O)n3ncnc3c3c(CN(C(C)C)C(C)C)csc32)cc1 [Example 215, 9-((Diisopropylamino)methyl)-6-(4-methoxybenzyl)thieno[3,2-e][1,2,4]triazolo[1,5-c]pyrimidin-5(6H)-one]",100 to 1000
9,"COc1ccc(Cn2c(=O)n3ncnc3c3c4c(sc32)N(Cc2ccc(Cl)cc2)CCC4)cc1 [Example 152, 8-(4-Chlorobenzyl)-6-(4-methoxybenzyl)-8,9,10,11-tetrahydropyrido[3′,2′:4,5]thieno[3,2-e][1,2,4]triazolo[1,5-c]pyrimidin-5 (6H)-one]",100 to 1000
10,"COc1ccc(Cn2c(=O)n3ncnc3c3c(C)c(CN4CCNCC4)sc32)cc1 [Example 49, 6-(4-Methoxybenzyl)-9-methyl-8-(piperazin-1-ylmethyl)thieno[3,2-e][1,2,4]triazolo[1,5-c]pyrimidin-5(6H)-one]",100 to 1000
11,"Cc1cc2c(s1)n(Cc1ccccc1Cl)c(=O)n1ncnc21 [Example 13, 6-(2-Chlorobenzyl)-8-methylthieno[3,2-e][1,2,4]triazolo[1,5-c]pyrimidin-5(6H)-one]",1000 to 10000
12,"CCN(Cc1csc2c1c1ncnn1c(=O)n2Cc1ccc(OC)cc1)CC1CCOCC1 [Example 197, 9-((Ethyl((tetrahydro-2H-pyran-4-yl)methyl)amino)methyl)-6-(4-methoxybenzyl)thieno[3,2-e][1,2,4]triazolo[1,5-c]pyrimidin-5(6H)-one]",100 to 1000
13,"COc1ccc(Cn2c(=O)n3ncnc3c3c4c(sc32)COCC4)cc1F [Example 95, 6-(3-Fluoro-4-methoxybenzyl)-6,8,10,11-tetrahydro-5H-pyrano[4′,3′:4,5]thieno[3,2-e][1,2,4]triazolo[1,5-c]pyrimidin-5-one]",100 to 1000

# Same assay, conditions: negative log of half-maximal molar inhibitory concentration; 200 nM FAM-cAMP; reported as ranges
row,Structure (SMILES),PDE1b (pEC50)
1,"COc1ccc(Cn2c(=O)n3ncnc3c3cc(-c4cc(C(F)(F)F)nn4C)sc32)cc1 [Example 41, 6-(4-Methoxybenzyl)-8-(1-methyl-3-(trifluoromethyl)-1H-pyrazol-5-yl)thieno[3,2-e][1,2,4]triazolo[1,5-c]pyrimidin-5(6H)-one]",>7
2,"CC(C)CCc1cc2c(s1)n(Cc1ccc(-c3ccccc3)cc1)c(=O)n1ncnc21 [Example 21, 6-([1,1′-Biphenyl]-4-ylmethyl)-8-isopentylthieno[3,2-e][1,2,4]triazolo[1,5-c]pyrimidin-5(6H)-one]",<5
3,"CCN1CCN(Cc2cc3c(s2)n(Cc2ccc(OC)cc2)c(=O)n2ncnc32)CC1=O [Example 34, 8-((4-Ethyl-3-oxopiperazin-1-yl)methyl)-6-(4-methoxybenzyl)thieno[3,2-e][1,2,4]triazolo[1,5-c]pyrimidin-5(6H)-one]",>7
4,"COc1ccc(Cn2c(=O)n3ncnc3c3c(C)c(CN4CC5CC4CO5)sc32)cc1 (centres unmarked) [Example 65, 8-(2-Oxa-5-azabicyclo[2.2.1]heptan-5-ylmethyl)-6-(4-methoxybenzyl)-9-methylthieno[3,2-e][1,2,4]triazolo[1,5-c]pyrimidin-5(6H)-one]",>7
5,"COc1ccc(Cn2c(=O)n3ncnc3c3c4c(sc32)CN(Cc2nccn2C)CC4)cc1 [Example 122, 6-(4-Methoxybenzyl)-9-((1-methyl-1H-imidazol-2-yl)methyl)-8,9,10,11-tetrahydropyrido[4′,3′:4,5]thieno[3,2-e][1,2,4]triazolo[1,5-c]pyrimidin-5(6H)-one]",>7
6,"COc1c(F)cc(Cn2c(=O)n3ncnc3c3c4c(sc32)COCC4)cc1F [Example 98, 6-(3,5-Difluoro-4-methoxybenzyl)-6,8,10,11-tetrahydro-5H-pyrano[4′,3′:4,5]thieno[3,2-e][1,2,4]triazolo[1,5-c]pyrimidin-5-one]",<5
7,"COc1ccc(Cn2c(=O)n3ncnc3c3c(C)c(CN(CCO)Cc4ccccc4)sc32)cc1 [Example 48, 8-((Benzyl(2-hydroxyethyl)amino)methyl)-6-(4-methoxybenzyl)-9-methylthieno[3,2-e][1,2,4]triazolo[1,5-c]pyrimidin-5(6H)-one]",>7
8,"COc1ccc(Cn2c(=O)n3ncnc3c3cc(CN4CCN(c5cccc(F)c5)CC4)sc32)cc1 [Example 187, 8-((4-(3-Fluorophenyl)piperazin-1-yl)methyl)-6-(4-methoxybenzyl)thieno[3,2-e][1,2,4]triazolo[1,5-c]pyrimidin-5(6H)-one]",>7
9,"COc1ccc(Cn2c(=O)n3ncnc3c3c4c(sc32)CN(CC2COCCO2)CC4)cc1 (centres unmarked) [Example 125, 9-((1,4-Dioxan-2-yl)methyl)-6-(4-methoxybenzyl)-8,9,10,11-tetrahydropyrido[4′,3′:4,5]thieno[3,2-e][1,2,4]triazolo[1,5-c]pyrimidin-5(6H)-one]",>7
10,"COc1ccc(Cn2c(=O)n3ncnc3c3c4c(sc32)CN(C(=O)C2CC2)CC4)cc1 [Example 159, 9-(Cyclopropanecarbonyl)-6-(4-methoxybenzyl)-8,9,10,11-tetrahydropyrido[4′,3′:4,5]thieno[3,2-e][1,2,4]triazolo[1,5-c]pyrimidin-5(6H)-one]",>7
11,"COc1ccc(Cn2c(=O)n3ncnc3c3c4c(sc32)CN(Cc2ccc(F)cc2)CC4)cc1 [Example 127, 9-(4-Fluorobenzyl)-6-(4-methoxybenzyl)-8,9,10,11-tetrahydropyrido[4′,3′:4,5]thieno[3,2-e][1,2,4]triazolo[1,5-c]pyrimidin-5(6H)-one]",>7
12,"COc1ccc(Cn2c(=O)n3ncnc3c3c4c(sc32)CN(CC2CCCOC2)CC4(F)F)cc1 (centres unmarked) [Example 136, 11,11-Difluoro-6-(4-methoxybenzyl)-9-((tetrahydro-2H-pyran-3-yl)methyl)-8,9,10,11-tetrahydropyrido[4′,3′:4,5]thieno[3,2-e][1,2,4]triazolo[1,5-c]pyrimidin-5(6H)-one]",>7
13,"COc1ccc(Cn2c(=O)n3ncnc3c3cc(CN4C[C@@H](C)O[C@@H](C)C4)sc32)cc1F [Example 201, 8-(((2R,6S)-2,6-Dimethylmorpholino)methyl)-6-(3-fluoro-4-methoxybenzyl)thieno[3,2-e][1,2,4]triazolo[1,5-c]pyrimidin-5(6H)-one]",>7
14,"COc1ccc(Cn2c(=O)n3ncnc3c3c4c(sc32)CN(Cc2nccn2C)CC4)c(F)c1 [Example 138, 6-(2-Fluoro-4-methoxybenzyl)-9-((1-methyl-1H-imidazol-2-yl)methyl)-8,9,10,11-tetrahydropyrido[4′,3′:4,5]thieno[3,2-e][1,2,4]triazolo[1,5-c]pyrimidin-5(6H)-one]",>7
15,"COc1ccc(Cn2c(=O)n3ncnc3c3c(C)c(CN4CCC(O)CC4)sc32)cc1 [Example 47, 8-((4-Hydroxypiperidin-1-yl)methyl)-6-(4-methoxybenzyl)-9-methylthieno[3,2-e][1,2,4]triazolo[1,5-c]pyrimidin-5(6H)-one]",>7
16,"COc1ccc(Cn2c(=O)n3ncnc3c3c4c(sc32)CCN(CC2CCOCC2)C4)cc1 [Example 216, 6-(4-Methoxybenzyl)-10-((tetrahydro-2H-pyran-4-yl)methyl)-8,9,10,11-tetrahydropyrido[3′,4′:4,5]thieno[3,2-e][1,2,4]triazolo[1,5-c]pyrimidin-5(6H)-one]",<5
17,"COc1ccc(Cn2c(=O)n3ncnc3c3c4c(sc32)N(C(=O)C2CCOC2)CCC4)cc1 (centres unmarked) [Example 175, 6-(4-Methoxybenzyl)-8-(tetrahydrofuran-3-carbonyl)-8,9,10,11-tetrahydropyrido[3′,2′:4,5]thieno[3,2-e][1,2,4]triazolo[1,5-c]pyrimidin-5(6H)-one]",>7
18,"COc1ccc(Cn2c(=O)n3ncnc3c3c(C)c(CN4CCN(C)C(C)C4)sc32)cc1 (centres unmarked) [Example 73, 8-((3,4-Dimethylpiperazin-1-yl)methyl)-6-(4-methoxybenzyl)-9-methylthieno[3,2-e][1,2,4]triazolo[1,5-c]pyrimidin-5(6H)-one]",>7
19,"COc1ccc(Cn2c(=O)n3ncnc3c3cc(CN4CCOCC4)sc32)cc1F [Example 207, 6-(3-Fluoro-4-methoxybenzyl)-8-(morpholinomethyl)thieno[3,2-e][1,2,4]triazolo[1,5-c]pyrimidin-5(6H)-one]",>7
